Key:
[1] = Pharmacokinetics assay in rats; assay type: in vivo, SD rats
Outline: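 SD rats, half male and half female, dosed intragastrically with compound suspended at 5 mg/mL (as free acid) in 1% sodium carboxymethyl cellulose; fed 2 h post-dose. Plasma concentrations over time were measured by HPLC-UV. Parameters came from a compartmental fit, with Cmax and tmax as observed values.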

[2] = Pharmacokinetics assay in Beagle dogs; assay type: in vivo; settings: for Vd/F / AUC / CL/F / half-life / MRT / Cmax / Tmax: male, beagle, dog, plasma, po; for Vd/F: read-out: Apparent Distribution Volume Vz/F; for AUC: read-out: Area Under Curve AUC; for CL/F: read-out: Clearance CL/F (converted); for half-life: read-out: Half-Life t1/2 (converted); for MRT: read-out: Mean Residence Time MRT; for Cmax: read-out: Plasma Conc. Cmax; for Tmax: read-out: Time to peak Tmax
Procedure: The pharmacokinetic behavior of the compounds of the present disclosure was studied and evaluated in Beagle dogs.
12 Healthy adult Beagles dogs, male, were purchased from Suzhou Xishan Drug Research and Development Colo., LTD. License number: SCXK (Suzhou) 2007-0005.
The test compound was diluted with 0.5% sodium carboxymethyl cellulose to 2.5 mg/mL (calculated as the free acid form) of suspension before use.
12 Healthy adult Beagles dogs, male, were divided into 4 groups. After an overnight fast, the dogs were administered intragastrically at a dose of 5.0 mg/kg (calculated as the free acid form), at a volume of 2 mL/kg.
Blood samples (1.2 mL) were taken from vein of forelegs at pre administration and at 0.25, 0.5, 1.0, 1.5, 2.0, 3.0, 5.0, 6.0, 8.0, 12.0, 14.0, 24.0 and 48.0 hours post administration, which were stored in heparinized tubes and centrifuged for 10 minutes at 3,500 rpm. The plasma samples were stored at −20° C. until analysis. The Beagles dogs were fed 2 hours after administration.
50 μL of Beagles dog plasma, obtained at various time points after administration, 20 μL of internal standard solution and 150 μL of methanol was added to result in protein precipitation. Then the mixture was mixed for 1 minute using a vortexer and centrifuged for 5 minutes at 11,000 rpm. 50 μL of the supernatant was analyzed by HPLC-UV.
The compartmental model of pharmacokinetics was fitted for the test compounds and the major pharmacokinetic parameters were calculated in which Cmax and tmax were the actually measured values.

[3] = 5 mg/kg, intragastric, 5 mg/kg (as free acid)
[4] = SD rats, intragastric, 50 mg/Kg (as free acid), 50 mg/kg
[5] = intragastric, 5 mg/kg (as free acid), 5 mg/kg

SMILES	Vd/F [2, 3]	AUC [2, 3]	CL/F [2, 3]	half-life [2, 3]	MRT [2, 3]	Cmax [2, 3]	Tmax [2, 3]	Area Under Curve AUC [1, 4]	Clearance CL/F [1, 4]	Half-Life t½ [1, 4]	Plasma Conc. Cmax [1, 4]	Time to peak Tmax [1, 4]	other results
CC1=NN(c2ccc3c(c2)CCCC3)C(=O)/C1=N\Nc1cccc(-c2ccc(C(=O)O)o2)c1O.NCCO.NCCO [Example 7, (Z)-5-(2-hydroxy-3-{N′-[3-methyl-5-oxo-1-(5,6,7,8-tetrahydro-naphthalen-2-yl)-1,5-dihydro-pyrazol-4-ylidene]-hydrazino}-phenyl)-furan-2-carboxylic acid bis-(ethanolamine)]	5.72 L/kg	12200 ng·h/mL	8.3 mL/min/kg	494 min	13.3 h	985 ng/mL	72 min						Vd/F ([1]; both sexes, SD, rat, plasma, po, 50 mg/kg, SD rats, intragastric, 50 mg/Kg (as free acid), read-out: Apparent Distribution Volume Vz/F): 2.48 ± 0.92 L/kg; AUC ([1]; both sexes, SD, rat, plasma, po, 50 mg/kg, SD rats, intragastric, 50 mg/Kg (as free acid), read-out: Area Under Curve AUC): 469 ± 274 µg·h/mL; CL/F ([1]; both sexes, SD, rat, plasma, po, 50 mg/kg, SD rats, intragastric, 50 mg/Kg (as free acid), read-out: Clearance CL/F (converted)): 2.92 mL/min/kg; half-life ([1]; both sexes, SD, rat, plasma, po, 50 mg/kg, SD rats, intragastric, 50 mg/Kg (as free acid), read-out: Half-Life t½ (converted)): 834 ± 364 min; MRT ([1]; both sexes, SD, rat, plasma, po, 50 mg/kg, SD rats, intragastric, 50 mg/Kg (as free acid), read-out: Mean Residence Time MRT): 13.3 ± 5.12 h; Cmax ([1]; both sexes, SD, rat, plasma, po, 50 mg/kg, SD rats, intragastric, 50 mg/Kg (as free acid), read-out: Plasma Conc. Cmax): 74.1 ± 34.5 µg/mL; Tmax ([1]; both sexes, SD, rat, plasma, po, 50 mg/kg, SD rats, intragastric, 50 mg/Kg (as free acid), read-out: Time to peak Tmax): 1.75 ± 0.5 h; pharmacokinetics and bioavailability, in words ([1]; rats, comparing to the free acid): good pharmacokinetic characteristics; pharmacokinetics, in words ([2]; among the four salts): obviously superior in pharmacokinetics
CC1=NN(c2ccc3c(c2)CCCC3)C(=O)/C1=N\Nc1cccc(-c2ccc(C(=O)O)o2)c1O [Example 8, (Z)-5-(2-hydroxy-3-{N′-[3-methyl-5-oxo-1-(5,6,7,8-tetrahydro-naphthalen-2-yl)-1,5-dihydro-pyrazol-4-ylidene]-hydrazino}-phenyl)-furan-2-carboxylic acid bis-(choline)]								352 ± 586 µg·h/mL	0.926 ± 1.013 L/h/kg	10.6 ± 9.02 h	36.2 ± 46.2 µg/mL	1.38 ± 1.11 h	Area Under Curve AUC [2, 5]: 7.91 µg·h/mL; Clearance CL/F [2, 5]: 0.879 L/h/kg; Half-Life t1/2 [2, 5]: 7.67 h; Plasma Conc. Cmax [2, 5]: 0.6 µg/mL; Time to peak Tmax [2, 5]: 30 min
CC1=NN(c2ccc3c(c2)CCCC3)C(=O)/C1=N\Nc1cccc(-c2ccc(C(=O)O)o2)c1O [Example 12, (Z)-5-(2-hydroxy-3-{N′-[3-methyl-5-oxo-1-(5,6,7,8-tetrahydro-naphthalen-2-yl)-1,5-dihydro-pyrazol-4-ylidene]-hydrazino}-phenyl)-furan-2-carboxylic acid bis-(trometamol)]	4.86 L/kg	11000 ng·h/mL	11 mL/min/kg	412 min	11.6 h	811 ng/mL	30 min	58.5 ± 23.8 µg·h/mL	1.00 ± 0.504 L/h/kg	5.1 ± 2.41 h	17.8 ± 10.3 µg/mL	1.38 ± 1.11 h	

From patent US9120762B2, “Salts of bicyclo-substituted pyrazolon azo derivatives, preparation method and use thereof” (Jiangsu Hengrui Medicine Co., Ltd., priority 2009, dated 2015)
